Assay results as given in patent US9597271B2, “Cosmetic compositions and methods” (The Procter & Gamble Company, priority 2013, dated 2017).
Values joined by “and” are separate entries in the source; they are usually repeats but may differ in a detail not shown here. Identical values can stand only once.

Experiments:
[1] = molecular target: T1, 20S proteasome (Mus musculus, UniProt O55234); assay: Proteasomal protease in vitro assay (ProteasomeGlo, Suc-LLVY luminogenic substrate) in B16 melanoma cells; format: cell-based; settings: for Fold Change Over Control (luminescence): B16 melanoma cells; for Ricinoleate concentration at which synergy with niacinamide is statistically significant: combined with 250 μM niacinamide
T1 construct: endogenous in cells; host or cells: B16 melanoma cells (lysate after 20-24 h treatment)
T1 sequence (O55234 60-264): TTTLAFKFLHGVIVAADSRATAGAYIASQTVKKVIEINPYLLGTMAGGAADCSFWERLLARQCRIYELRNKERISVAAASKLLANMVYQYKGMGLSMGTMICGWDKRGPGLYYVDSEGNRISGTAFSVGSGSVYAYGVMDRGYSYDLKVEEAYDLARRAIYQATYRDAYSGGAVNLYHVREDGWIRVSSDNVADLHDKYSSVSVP
Method: The following proteasomal protease in vitro assay was employed for evaluating activity associated with this pathway. Cultures of B16 melanoma cells (about 25% confluence) were treated with a culture media (Dulbecco's Modified Eagle Medium, 11995-065 Life technologies supplemented with 5% Fetal Bovine Serum, 30-2020, American Tissue Culture Collection and 1% Penicillin/streptomycin, 15140, Life Technologies) and one of 1) a vehicle (DMSO) containing niacinamide, 2) a vehicle (DMSO) containing one of glycerol ricinoleate, sodium ricinoleate and butyl acetyl ricinoleate at varying dilutions, 3) a vehicle (DMSO) containing a combination of niacinamide and one of the ricinoleate compounds listed above, and 4) a vehicle (DMSO) containing 2-hexyl-decanol as a positive control. The final dilution of DMSO in the culture medium was 1% in all instances. The treated melanoma cells were incubated in multi-well plates at 37° C. in a CO2 incubator for a period of 20 to 24 hours. The treated cells were thereafter lyzed by removing the culture medium and replacing it with 100 uL/well of CellGlo lysis reagent (available from Promega, Wis., USA) followed by incubation at room temperature for about 10 minutes. A luminogenic substrate containing a Suc-LLVY peptide sequence recognized by the 20S proteasome was added to the B16 cultures, and the mixtures were incubated in multi-well plates at a temperature of 25° C. for approximately 10 minutes. Luminescence counts (a unit less measurement from the plate reader) from developing the cleaved substrate with luciferase detection system (ProteasomeGlo® from Promega, Madison, Wis.) was measured in an Envision Plate Reader (Perkin Elmer, Waltham, Mass.). Other plate luminometer/luminescence readers may also be used as known in the art.
Luminescence counts for treatment groups were divided by the luminescence counts from the vehicle control (1% DMSO, as diluted in the culture medium). […] 2-hexyldecanol, a known skin tone agent, was also previously found to activate this proteasomal chymotryptic protease activity. See, e.g., Hakozaki et al., A regulator of ubiquitin-proteasome activity, 2-hexyldecanol, suppresses melanin synthesis and the appearance of facial hyperpigmented spots, British Journal of Dermatology 2013, 169 (Supp 2), pp 39-44.

[2] = molecular target: T1, 20S proteasome; settings: previously found, Hakozaki et al. 2013; cited from earlier work
[3] = experiment #1, N=3, 20 to 24 hours, DMSO vehicle
[4] = experiment #2, N=3, 20 to 24 hours, DMSO vehicle
[5] = ricinoleate compound alone, 0.000064 w/v %, B16 cells
[6] = ricinoleate compound alone, 0.00032 w/v %, B16 cells
[7] = ricinoleate compound alone, 0.0016 w/v %, B16 cells
[8] = ricinoleate compound alone, 0.008 w/v %, B16 cells
[9] = vitamin B3 compound alone, 250 uM, B16 cells, average of 3 replicates

Molecule	Fold Change Over Control (luminescence) ([1]; Avg. of experiments #1 and #2)	Fold Change Over Control (luminescence) [1, 3]	Fold Change Over Control (luminescence) [1, 4]	Net Luminescence (treatment luminescence counts − vehicle control luminescence counts) [1, 5]	Net Luminescence (treatment luminescence counts − vehicle control luminescence counts) [1, 6]	Net Luminescence (treatment luminescence counts − vehicle control luminescence counts) [1, 7]	Net Luminescence (treatment luminescence counts − vehicle control luminescence counts) [1, 8]	Net Luminescence (treatment luminescence counts − vehicle control luminescence counts) [1, 9]	other results
CCCCCC[C@@H](O)C/C=C\CCCCCCCC(=O)OCC(O)CO (stereo partly shown) [Glyceryl ricinoleate, glyceryl ricinoleate]	1.17	1.15	1.18	123	534	839	867	–	Net Luminescence (treatment luminescence counts − vehicle control luminescence counts) ([1]; ricinoleate compound alone, 0.00032 w/v %, B16 cells, listed as GR): 287 and 518; Net Luminescence (treatment luminescence counts − vehicle control luminescence counts) ([1]; ricinoleate compound alone, 0.0016 w/v %, B16 cells, listed as GR): 745 and 1258; Net Luminescence (treatment luminescence counts − vehicle control luminescence counts) ([1]; ricinoleate compound alone, 0.008 w/v %, B16 cells, listed as GR): 789 and 1125
CCCCCC[C@@H](O)C/C=C\CCCCCCCC(=O)OC [Methyl ricinoleate, methyl ricinoleate]	–	–	–	–	–	–	4222	–	Ricinoleate concentration at which synergy with niacinamide is statistically significant ([1]; B16 cells): 0.008%
NC(=O)c1cccnc1 [Niacinamide, niacinamide]	–	–	–	–	–	–	–	158 (4×) and 257 (8×) and 1503	Activation of proteasomal protease activity, single agent (in words) ([1]; B16 cells): lower level of activation
nicotinamide ribose	–	–	–	–	–	–	–	392	–
CCCCCCCCC(CO)CCCCCC (stereo not shown) [2-hexyldecanol, reference compound]	1.16	1.15	1.17	–	–	–	–	–	Activation of proteasomal chymotryptic protease activity (in words) [2]: activate
CCCCCC[C@H](C/C=C\CCCCCCCC(=O)OCCCC)OC(C)=O [Butyl acetyl ricinoleate, butyl acetyl ricinoleate]	1.29	1.32	1.26	1224	2164	2357	2439	–	Ricinoleate concentration at which synergy with niacinamide is statistically significant ([1]; B16 cells): ≥ 0.00032%
COC(=O)c1cccnc1 [Methyl niconate, methyl niconate]	–	–	–	–	–	–	–	162	–
O=C(O)c1cccnc1 [Nicotinic acid, nicotinic acid]	–	–	–	–	–	–	–	303	–
CCCCCC[C@@H](O)C/C=C\CCCCCCCC(=O)[O-].[Na+] [Sodium ricinoleate, sodium ricinoleate]	1.24	1.26	1.21	123	878	1805	2164	–	–
OCc1cccnc1 [3-pyridinemethanol]	–	–	–	–	–	–	–	105	–
